Experimental data taken from patent publication US8673950B2, “Dihydrooxazol-2-amine derivatives” (Hoffmann-LaRoche Inc., priority 2010, dated 2014).

Key:
mouse TAAR1 = mouse TAAR1 (Mus musculus (Mouse), UniProt Q923Y8); test: Radioligand binding assay on mouse TAAR1; settings: mouse TAAR1, membranes of stably transfected HEK-293 cells; first value of cell mouse/rat
Experimental: (§1) Construction of TAAR Expression Plasmids and Stably Transfected Cell Lines
(§2) For the construction of expression plasmids the coding sequences of human, rat and mouse TAAR 1 were amplified from genomic DNA essentially as described by Lindemann et al.. The Expand High Fidelity PCR System (Roche Diagnostics) was used with 1.5 mM Mg^2+ and purified PCR products were cloned into pCR2.1-TOPO cloning vector (Invitrogen) following the instructions of the manufacturer. PCR products were subcloned into the pIRESneo2 vector (BD Clontech, Palo Alto, Calif.), and expression vectors were sequence verified before introduction in cell lines.
(§3) HEK293 cells (ATCC # CRL-1573) were cultured essentially as described by Lindemann et al. (2005). For the generation of stably transfected cell lines HEK293 cells were transfected with the pIRESneo2 expression plasmids containing the TAAR coding sequences (described above) with Lipofectamine 2000 (Invitrogen) according to the instructions of the manufacturer, and 24 hrs post transfection the culture medium was supplemented with 1 mg/ml G418 (Sigma, Buchs, Switzerland). After a culture period of about 10 d clones were isolated, expanded and tested for responsiveness to trace amines (all compounds purchased from Sigma) with the cAMP Biotrak Enzyme immunoassay (EIA) System (Amersham) following the non-acetylation EIA procedure provided by the manufacturer.
Radioligand Binding Assay on Mouse TAAR1
(§4) Membrane Preparation and Radioligand Binding.
(§5) HEK-293 cells stably expressing mouse TAAR1 were maintained at 37° C. and 5% CO2 in DMEM high glucose medium, containing fetal calf serum (10%, heat inactivated for 30 min at 56° C.), penicillin/streptomycin (1%), and 375 μg/ml geneticin (Gibco). Cells were released from culture flasks using trypsin/EDTA, harvested, washed twice with ice-cold PBS (without Ca^2+ and Mg^2+), pelleted at 1'000 rpm for 5 min at 4° C., frozen and stored at −80° C. Frozen pellets were suspended in 20 ml HEPES-NaOH (20 mM, pH 7.4) containing 10 mM EDTA and homogenized with a Polytron (PT 6000, Kinematica) at 14'000 rpm for 20 s. The homogenate was centrifuged at 48'000×g for 30 min at 4° C. Subsequently, the supernatant was removed and discarded, and the pellet resuspended in 20 ml HEPES-NaOH (20 mM, pH 7.4) containing 0.1 mM EDTA using the Polytron (20 s at 14'000 rpm). This procedure was repeated and the final pellet resuspended in HEPES-NaOH containing 0.1 mM EDTA and homogenized using the Polytron. Typically, aliquots of 2 ml membrane portions were stored at −80° C. With each new membrane batch the dissociation constant (Kd) was determined via a saturation curve. The TAAR1 radioligand ^3[H]-(S)-4-[(ethyl-phenyl-amino)-methyl]-4,5-dihydro-oxazol-2-ylamine (described in WO 2008/098857) was used at a concentration equal to the calculated Kd value, that was usually around 0.7 nM, resulting in the binding of approximately 0.5% of the radioligand and a specific binding representing approximately 70% of the total binding. Nonspecific binding was defined as the amount of ^3[H]-(S)-4-[(ethyl-phenyl-amino)-methyl]-4,5-dihydro-oxazol-2-ylamine bound in the presence of 10 μM unlabeled ligand. All compounds were tested at a broad range of concentrations (10 μM to 10 μM) in duplicates. […] The 96 deep well plates were incubated for 1 hr at 4° C. Incubations were terminated by rapid filtration through Unifilter-96 plates (Packard Instrument Company) and glass filters GF/C (Perkin Elmer) presoaked for 1 hr in polyethylenimine (0.3%) and washed 3 times with 1 ml of cold binding buffer. After addition of 45 μl of Microscint 40 (PerkinElmer) the Unifilter-96 plate was sealed and after 1 hr the radioactivity counted using a TopCount Microplate Scintillation Counter (Packard Instrument Company).

rat TAAR1 = rat TAAR1 (Rattus norvegicus (Rat), UniProt Q923Y9); test: Radioligand binding assay on rat TAAR1; settings: rat TAAR1, membranes of stably transfected HEK-293 cells; second value of cell mouse/rat
Sequence of rat TAAR1 (Q923Y9 whole entry): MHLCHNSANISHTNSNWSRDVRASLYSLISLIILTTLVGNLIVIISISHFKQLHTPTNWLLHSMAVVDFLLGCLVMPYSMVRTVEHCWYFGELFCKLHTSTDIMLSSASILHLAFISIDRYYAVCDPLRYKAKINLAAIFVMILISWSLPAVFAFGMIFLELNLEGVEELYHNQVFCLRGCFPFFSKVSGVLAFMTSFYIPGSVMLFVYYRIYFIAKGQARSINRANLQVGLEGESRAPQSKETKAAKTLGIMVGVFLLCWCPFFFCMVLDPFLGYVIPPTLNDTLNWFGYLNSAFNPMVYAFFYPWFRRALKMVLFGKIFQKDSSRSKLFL
Experimental: as §1, §2, §3
Radioligand Binding Assay on Rat TAAR1
as §4
as §5, with “expressing rat” for “expressing mouse”, “curve. […]” for “curve. The TAAR1 radioligand ^3[H]-(S)-4-[(ethyl-phenyl-amino)-methyl]-4,5-dihydro-oxazol-2-ylamine (described in WO 2008/098857) was used at a concentration equal to the calculated Kd value, that was usually around 0.7 nM, resulting in the binding of approximately 0.5% of the radioligand and a specific binding representing approximately 70% of the total binding.”, “(10 pM” for “(10 μM”

Sequence of mouse TAAR1 (Q923Y8 whole entry): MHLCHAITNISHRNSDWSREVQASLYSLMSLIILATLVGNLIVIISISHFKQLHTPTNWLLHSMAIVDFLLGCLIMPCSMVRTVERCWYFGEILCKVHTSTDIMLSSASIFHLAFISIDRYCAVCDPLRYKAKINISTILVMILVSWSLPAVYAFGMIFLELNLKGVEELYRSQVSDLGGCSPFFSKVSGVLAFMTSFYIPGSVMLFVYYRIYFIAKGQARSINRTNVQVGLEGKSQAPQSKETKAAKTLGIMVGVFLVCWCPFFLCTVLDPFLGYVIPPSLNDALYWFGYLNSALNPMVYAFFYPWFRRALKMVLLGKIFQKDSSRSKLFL

Ki (mouse TAAR1) [µM] | Ki (rat TAAR1) [µM] | Compound
0.0192 | 0.0024 | CC(=O)c1cnc(Nc2ccc(CC[C@H]3COC(N)=N3)cc2)nc1 [Example 47, 1-(2-{4-[2-((S)-2-Amino-4,5-dihydro-oxazol-4-yl)-ethyl]phenylamino}-pyrimidin-5-yl)-ethanone]
0.0007 | 0.0006 | CCCc1cnc(Nc2ccc(CC[C@H]3COC(N)=N3)cc2)nc1 [Example 49, {4-[2-((8)-2-Amino-4,5-dihydro-oxazol-4-yl)-ethyl]-phenyl}-(5-propyl-pyrimidin-2-yl)-amine]
0.0218 | 0.0006 | NC1=N[C@@H](CCc2ccc(Nc3cnc(Cl)nc3)cc2)CO1 [Example 50, {4-[2-((S)-2-Amino-4,5-dihydro-oxazol-4-yl)-ethyl]-phenyl}-(2-chloro-pyrimidin-5-yl)-amine]
0.0006 | 0.0004 | NC1=N[C@@H](CCc2ccc(Nc3ncc(Br)cn3)cc2)CO1 [Example 51, {4-[2-((S)-2-Amino-4,5-dihydro-oxazol-4-yl)-ethyl]-phenyl}-(5-bromo-pyrimidin-2-yl)-amine]
0.0003 | 0.0004 | NC1=N[C@@H](CCc2ccc(Nc3ncc(C4CC4)cn3)cc2)CO1 [Example 54, {4-[2-((S)-2-Amino-4,5-dihydro-oxazol-4-yl)-ethyl]-phenyl}-(5-cyclopropyl-pyrimidin-2-yl)-amine]
0.005 | 0.0083 | CCOc1cnc(Nc2ccc(CC[C@H]3COC(N)=N3)cc2)nc1 [Example 55, {4-[2-((S)-2-Amino-4,5-dihydro-oxazol-4-yl)-ethyl]-phenyl}-(5-ethoxy-pyrimidin-2-yl)-amine]
0.0019 | 0.0039 | NC1=N[C@@H](CCc2ccc(Nc3ncc(C(F)(F)F)cn3)cc2)CO1 [Example 56, (S)-4-(4-(5-(Trifluoromethyl)pyrimidin-2-ylamino)phenethyl)-4,5-dihydrooxazol-2-amine]
0.0005 | 0.0004 | CC(C)(C)c1cnc(Nc2ccc(CC[C@H]3COC(N)=N3)cc2)nc1 [Example 57, (S)-4-(4-(5-tert-Butylpyrimidin-2-ylamino)phenethyl)-4,5-dihydrooxazol-2-amine]
0.0002 | 0.0001 | CCC(CC)c1cnc(Nc2ccc(CC[C@H]3COC(N)=N3)cc2)nc1 [Example 58, (S)-4-(4-(5-(Pentan-3-yl)pyrimidin-2-ylamino)phenethyl)-4,5-dihydrooxazol-2-amine]
0.0003 | 0.0002 | NC1=N[C@@H](CCc2ccc(Nc3ncc(C4CCC4)cn3)cc2)CO1 [Example 60, (S)-4-(4-(5-Cyclobutylpyrimidin-2-ylamino)phenethyl)-4,5-dihydrooxazol-2-amine]
0.0623 | 0.0132 | NC1=N[C@@H](CCc2ccc(NC(c3ccc(Br)cn3)C(F)(F)F)cc2)CO1 (stereo partly drawn) [Example 62, (S)-4-(2-{4-[1-(5-Bromo-pyridin-2-yl)-2,2,2-trifluoro-ethylamino]-phenyl}-ethyl)-4,5-dihydro-oxazol-2-ylamine]
0.023 | 0.0064 | NC1=N[C@@H](CCc2ccc(NC(c3cccc(F)c3)C(F)(F)F)cc2)CO1 (stereo partly drawn) [Example 66, (4S)-4-(4-(2,2,2-Trifluoro-1-(3-fluorophenyl)ethylamino)phenethyl)-4,5-dihydrooxazol-2-amine]
0.0412 | 0.0084 | NC1=N[C@@H](CCc2ccc(NC(c3ccc(C(F)(F)F)cc3)C(F)(F)F)cc2)CO1 (stereo partly drawn) [Example 67, (4S)-4-(4-(2,2,2-Trifluoro-1-(4-(trifluoromethyl)phenyl)ethylamino)phenethyl)-4,5-dihydrooxazol-2-amine]
0.0651 | 0.0265 | NC1=N[C@@H](CCc2ccc(NC(c3ccc(Cl)cn3)C(F)(F)F)cc2)CO1 (stereo partly drawn) [Example 68, (4S)-4-(4-(1-(5-Chloropyridin-2-yl)-2,2,2-trifluoroethylamino)phenethyl)-4,5-dihydrooxazol-2-amine]

Compound | Ki (mouse TAAR1) [µM] | Ki (rat TAAR1) [µM]
Cc1ccnc(Nc2ccc(CC[C@H]3COC(N)=N3)cc2)n1 [Example 48, {4-[2-((S)-2-Amino-4,5-dihydro-oxazol-4-yl)-ethyl]-phenyl}-(4-methyl-pyrimidin-2-yl)-amine] | 0.0166 | 0.0012
C[C@@H]1OC(N)=N[C@H]1CCc1ccc(Nc2ncc(Cl)cn2)cc1 [Example 52, {4-[2-((4S,5S)-2-Amino-5-methyl-4,5-dihydro-oxazol-4-yl)-ethyl]-phenyl}-(5-chloro-pyrimidin-2-yl)-amine] | 0.0046 | 0.0006
CCC(=O)c1cnc(Nc2ccc(CC[C@H]3COC(N)=N3)cc2)nc1 [Example 53, (S)-1-(2-(4-(2-(2-Amino-4,5-dihydrooxazol-4-yl)ethyl)phenylamino)pyrimidin-5-yl)propan-1-one] | 0.113 | 0.0265
N#Cc1cnc(Nc2ccc(CC[C@H]3COC(N)=N3)cc2)nc1 [Example 59, 2-{4-[2-((S)-2-Amino-4,5-dihydro-oxazol-4-yl)-ethyl]-phenylamino}-pyrimidine-5-carbonitrile] | 0.008 | 0.0008
CC(C)c1cnc(Nc2ccc(CC[C@H]3COC(N)=N3)cc2)nc1 [Example 61, (S)-4-(4-(5-Isopropylpyrimidin-2-ylamino)phenethyl)-4,5-dihydrooxazol-2-amine] | 0.0007 | 0.0002
NC1=N[C@@H](CCc2ccc(NC(c3ccc(Cl)cc3)C(F)(F)F)cc2)CO1 (stereo partly drawn) [Example 63, (4S)-4-(4-(1-(4-Chlorophenyl)-2,2,2-trifluoroethylamino)phenethyl)-4,5-dihydrooxazol-2-amine] | 0.0084 | 0.0022
NC1=N[C@@H](CCc2ccc(N[C@@H](c3ccc(Cl)cc3)C(F)(F)F)cc2)CO1 [Example 64, (+)-(S)-4-(4-((S)-1-(4-Chlorophenyl)-2,2,2-trifluoroethylamino)phenethyl)-4,5-dihydrooxazol-2-amine] | 0.063 | 0.002
NC1=N[C@@H](CCc2ccc(N[C@H](c3ccc(Cl)cc3)C(F)(F)F)cc2)CO1 [Example 65, (−)-(S)-4-(4-((R)-1-(4-chlorophenyl)-2,2,2-trifluoroethylamino)phenethyl)-4,5-dihydrooxazol-2-amine] | 0.0244 | 0.0032
